For 18 compounds, IC50 results are on record in patent US20070265261A1, “Dpp-IV Inhibitors” (priority 2004, published 2007).

A value given as a limit tells only on which side of the number the result lay.

This assay addresses T1, DPP-IV (Homo sapiens, UniProt P27487).
T1 construct: Soluble human DPP-IV lacking the transmembrane anchor (Gly31-Pro766); Pre-Pro-alpha-mating factor leader (secretion signal) (N, cleaved yes); made in house
In words: Inhibition of DPP-IV peptidase activity, continuous fluorimetric assay (cleavage of Gly-Pro-AMC). Note: 16 µM Gly-Pro-AMC. Type of assay: biochemical. The method, then:
Inhibition of DPP-IV peptidase activity was monitored with a continuous fluorimetric assay. This assay is based on the cleavage of the substrate Gly-Pro-AMC (Bachem) by DPP-IV, releasing free AMC. The assay is carried out in 96-well microtiter plates. In a total volume of 100 μL, compounds are preincubated with […] DPP-IV employing a buffer containing 10 mM Hepes, 150 mM NaCl, 0.005% Tween 20 (pH 7.4). […] The final concentration of DMSO is 1%. The inhibitory potential of the compounds were determined.
Soluble human DPP-IV lacking the transmembrane anchor (Gly31-Pro766) was expressed in a recombinant YEAST-strain as Pre-Pro-alpha-mating fusion. The secreted product (rhuDPP-IV-Gly31-Pro766) was purified from fermentation broth (>90% purity).

T1 sequence (P27487 31-766): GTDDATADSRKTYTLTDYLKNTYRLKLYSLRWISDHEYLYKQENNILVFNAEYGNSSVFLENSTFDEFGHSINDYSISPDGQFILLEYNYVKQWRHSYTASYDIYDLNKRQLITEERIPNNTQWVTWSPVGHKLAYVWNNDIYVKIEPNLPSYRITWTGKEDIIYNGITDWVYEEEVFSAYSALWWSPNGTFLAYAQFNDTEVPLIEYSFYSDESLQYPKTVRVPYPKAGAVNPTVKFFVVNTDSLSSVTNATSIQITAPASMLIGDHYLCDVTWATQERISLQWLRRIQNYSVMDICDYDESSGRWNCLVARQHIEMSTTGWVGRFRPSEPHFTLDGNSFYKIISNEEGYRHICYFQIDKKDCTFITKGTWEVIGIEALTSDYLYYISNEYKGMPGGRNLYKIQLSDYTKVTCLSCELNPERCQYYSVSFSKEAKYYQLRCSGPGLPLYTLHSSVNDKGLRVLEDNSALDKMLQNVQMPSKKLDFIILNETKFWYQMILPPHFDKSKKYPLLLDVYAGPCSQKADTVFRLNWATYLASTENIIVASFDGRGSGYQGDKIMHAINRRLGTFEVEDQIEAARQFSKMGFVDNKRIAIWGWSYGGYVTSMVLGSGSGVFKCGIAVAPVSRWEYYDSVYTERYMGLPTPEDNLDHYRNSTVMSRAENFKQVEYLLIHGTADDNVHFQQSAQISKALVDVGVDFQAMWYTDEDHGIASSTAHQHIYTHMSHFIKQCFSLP

Usually IC50 stands for the concentration that gives 50% inhibition. A higher IC50 goes with weaker potency in that assay. As to `NC(Cc1cc(F)ccc1F)C1CCN(C(=O)c2ncccc2C(F)(F)F)CC1` (stereo not drawn) [Example 57], the IC50 was < 0.1 µM.
On to `NC(Cc1cc(F)ccc1F)C1CCN(C(=O)c2cc(C(F)(F)F)ccn2)CC1` (stereo not drawn) [Example 58], for which the 50% inhibitory concentration (IC50) was < 0.1 µM.
In the case of `NC(Cc1cc(F)ccc1F)C1CCN(C(=O)c2cccc(C(F)(F)F)n2)CC1` (stereo not drawn) [Example 59], the half-maximal inhibitory concentration (IC50) was < 0.1 µM.
On to `N[C@H](Cc1cc(F)ccc1F)C1CCN(C(=O)c2nccc(C(F)(F)F)n2)CC1` [Example 60], for which the half-maximal inhibitory concentration (IC50) is < 0.1 µM.
The compound `N[C@@H](Cc1cc(F)ccc1F)C1CCN(C(=O)c2nccc(C(F)(F)F)n2)CC1` [Example 61] had a half-maximal inhibitory concentration (IC50) of 0.101 to 1 µM.
Regarding `N[C@H](Cc1cc(F)c(F)cc1F)C1CCN(C(=O)c2ncccn2)CC1` [Example 63, {4-[(R)-1-amino-2-(2,4,5-trifluoro-phenyl)-ethyl]-piperidine-1yl}-pyrimidine-2-yl-methanone], the IC50 is < 0.1 µM.
With `N[C@H](Cc1cc(F)c(F)cc1F)C1CCN(C(=O)c2ccnc(C(F)(F)F)n2)CC1` [Example 64], the IC50 is < 0.1 µM.
As to `NC(Cc1cc(F)c(F)cc1F)C1CCN(C(=O)c2ccnc(C(F)(F)F)n2)CC1` (stereo not drawn) [Example 66], the 50% inhibitory concentration (IC50) is < 0.1 µM.
Regarding `N[C@H](Cc1cc(F)c(F)cc1F)C1CCN(C(=O)c2ccc(C(F)(F)F)nc2)CC1` [Example 67], the half-inhibitory concentration (IC50) is < 0.1 µM.
In the case of `N[C@H](Cc1cc(F)cc(F)c1F)C1CCN(C(=O)c2ncccn2)CC1` [Example 68] it was 0.101 to 1 µM.
`N[C@H](Cc1cc(F)cc(F)c1F)C1CCN(C(=O)c2ccnc(C(F)(F)F)n2)CC1` [Example 69]: the IC50 is < 0.1 µM.
With `CC(C)(C)OC(=O)N1CCCC(C(N)Cc2cccc(Cl)c2)C1` (stereo not drawn) [Example 70, 3-[1-Amino-2-(3-chloro-phenyl)-ethyl]-piperidine-1-carboxylic acid tert.-butyl ester], the half-inhibitory concentration (IC50) lay within 0.101 to 1 µM.
`NC(Cc1cccc(Cl)c1)C1CCCNC1` (stereo not drawn) [Example 71, 2-(3-Chloro-phenyl)-1-piperidin-3-yl-ethylamine] showed an IC50 of 1 to 2 µM.
The figure for `CS(=O)(=O)Nc1cccc(C(=O)N2CCC(C(N)Cc3cccc(Cl)c3)CC2)c1` (stereo not drawn) [Example 72, N-(3-{4-[1-Amino-2-(3-chloro-phenyl)-ethyl]-piperidine-1-carbonyl}-phenyl)-methane-sulphonamide] is < 0.1 µM; for `NC(Cc1cccc(Cl)c1)C1CCN(c2ncccn2)CC1` (stereo not drawn) [Example 73] it is 0.101 to 1 µM; for `NC(Cc1cc(F)ccc1F)C1CCN(C(=O)N2CCC(F)(F)C2)CC1` (stereo not drawn) [Example 74, {4-[1-Amino-2-(2 5-difluoro-phenyl)-ethyl]-piperidin-1-yl}-(3,3-difluoro-pyrrolidin-1-yl)-methanone] it is < 0.1 µM.
`NC(Cc1cccc(Cl)c1)C1CCN(C(=O)N2CCOCC2)CC1` (stereo not drawn) [Example 75]: the half-maximal inhibitory concentration (IC50) is < 0.1 µM.
In the case of `NC(Cc1cccc(Cl)c1)C1CCN(C(=O)N2CCCC2)CC1` (stereo not drawn) [Example 76], the 50% inhibitory concentration (IC50) was < 0.1 µM.
